The record followed here is patent publication US7879853B2, “4,6-disubstituted pyrimidines and their use as protein kinase inhibitors” (Bayer Schering Pharma AG, priority 2004, dated 2011).

The test system of test [1] is phosphorylated GSK3 (Ser9) in MCF7 cells. Nature of the test: Cellular pGSK3 assay (pGSK3-ELISA). Format: cell-based. As to conditions: Homo sapiens, 48 h, read-out: GSK3 inhibition (pGSK3-ELISA): IC50. The protocol:
In order to study the cellular activity of the compounds according to the invention, an ELISA-based assay has been established for the phosphorylated glycogen synthetase kinase 3, GSK3. The assay is based on a solid phase sandwich ELISA that detects endogenous levels of the phosphorylated GSK3 (BioSource International, Inc.; Catalog #KHO0461). A phospho-GSK3 (Ser9) antibody has been coated onto the microwells. After incubation with cell lysates, the coated antibody captures the phosphorylated GSK3 protein. Following extensive washing, GSK3 polyclonal antibody is added to detect the captured phospho-GSK3 protein. HRP-linked […] antibody (anti-rabbit IgG-HRP) is then used to recognize the bound detection antibody. […]
Cells are harvested and lysed with brief vortexing in cell extraction buffer (10 mM Tris, pH 7.4, 100 mM NaCl, 1 mM EDTA, 1 mM EGTA, 1 mM NaF, 20 mM Na4P2O7, 2 mM Na3VO4, 1% Triton X-100, 10% glycerol, 0.1% SDS, 0.5% deoxycholate, 1 mM PMSF). […] The absorbance is measured at 450 nm (Wallac Victor2; Perkin Elmer, USA) within 30 minutes after adding Stop solution. The analysis of the data is performed using a statistical program (Microsoft Excel, USA) and the inhibition of pGSK3 phosphorylation is determined.
(In an ELISA, binding on a coated surface is turned into a signal by an enzyme label.)

Test [2] relates to phosphorylated Akt1 (Ser473) in MCF7 cells. Nature of the test: Cellular PI3K/Akt pathway assay (pAkt-ELISA). Type of test: cell-based. To be noted: Homo sapiens, β-Heregulin (20 ng/ml) stimulation, 48 h, read-out: Akt pathway inhibition (pAkt-ELISA): IC50. The protocol: In order to study the cellular activity of the compounds according to the invention, an ELISA-based assay has been established. The assay is based on a Sandwich ELISA kit (PathScan™ Phospho-Akt1 (Ser473); Cell Signaling, USA; #7160).
The assay detects endogenous levels of phosphorylated Akt1 protein. A phospho-Akt (Ser473) antibody (Cell Signaling, USA; #9271) has been coated onto the microwells. After incubation with cell lysates, the phosphorylated Akt protein is captured by the coated antibody. Following extensive washing, Akt1 monoclonal antibody (Cell Signaling, USA; #2967) is added to detect the captured phospho-Akt1 protein. HRP-linked anti-mouse antibody (Cell Signaling, USA; #7076) is then used to recognize the bound detection antibody. […] The magnitude of optical density for this developed color is proportional to the quantity of phosphorylated Akt1 protein. […]
Cells are harvested under nondenaturating conditions and lysed with brief sonification in 1× cell lyses buffer (20 mM Tris (pH7.5), 150 mM NaCl, 1 mM ethylene diaminetetraacetate (EDTA), 1 mM ethylene glycolbis-(2-aminoethyl)-N,N,N′,N′-tetraacetic acid (EGTA), 1% Triton X-100, 2.5 mM sodium pyrophosphate, 1 mM β-glycerolphosphate, 1 mM Na3VO4, 1 μg/ml leupeptin). […] The absorbance is read at 450 nm (Wallac Victor2; Perkin Elmer, USA) within 30 minutes after adding STOP solution. […]

What is called IC50 is the concentration at which inhibition is half-maximal. Regarding `CC(C)(N)c1ccc(C(=O)Nc2ccc(Nc3cc(-c4cccc5c4oc4ccccc45)ncn3)cc2)cc1` [Compound 69, 4-(1-Amino-1-methyl-ethyl)-N-[4-(6-dibenzofuran-4-yl-pyrimidin-4-ylamino)-phenyl]-benzamide trifluoracetate], the half-maximal inhibitory concentration (IC50) turned out to be 10 µM in test [1] and 6 µM in test [2].
